Experimental data: patent US20130059900A1, “CRYSTAL FORM I OF (S)-4-HYDROXY-2-OXO-1-PYRROLIDINE ACETAMIDE, PREPARING METHOD AND USE THEREOF” (priority 2010, published 2013)

Test system: rats having permanent occlusion of the bilateral carotid arteries
Test: Morris Water Maze, memory dysfunction of rats caused by chronic cerebral ischemia
Assay type: in vivo, SD male rats
Details: once per day for 37 days; for swimming time of the rats in the target: cerebral ischemia rats
Method: The protective effects of crystal form I of (S)-oxiracetam on memory dysfunction of rats caused by chronic cerebral ischemia. Material and method: The crystal form I of (S)-oxiracetam prepared in Example 1 and oxiracetam (batch number: 20071101, from Dong Ze Pharmaceutical Science and Technology Co., Ltd., Chong Qing, China) were prepared with normal saline solution freshly on being used. 40 SD male rats were used as experimental animals, and each of them was in a weight of 190 g to 220 g (purchased from Southwest Hospital, Chong Qing, China). The experimental animals were separated into four groups at random (10 animals per group): sham-operation group, cerebral ischemia group, experimental group with treatment of crystal form I of (S)-oxiracetam, control group with treatment of oxiracetam. The experimental group was treated with 100 mg/kg crystal form I of (S)-oxiracetam by intragastric administration, while the control group was treated with 200 mg/kg oxiracetam by intragastric administration, and both of the two group were treated once per day for 37 days since the day of beginning the surgery. The rats having permanent occlusion of the bilateral carotid arteries were used as model animals of cerebral ischemia group. The cerebral ischemia group, the experimental group and the control group were abdominally anaesthetized by 40 mg/kg pentobarbital natrium. The No. 4 threads were used to separate and ligate the bilateral carotid arteries. The arteries were cut at a position between the near and the far ligation points, and then the wounds made by cut were surgically stitched. The sham-operation group underwent surgery of separation of the bilateral carotid arteries and the wounds made by the surgeries were surgically stitched right away. The body temperature of the animals are maintained during the surgeries. Morris Water Maze system was used to assayed learning and memory ability of rats (diameter: 120 cm, height: 40 cm; purchased from Institute of Materia Medica (IMM), Chinese Academy of Medical Sciences & Peking Union Medical College). […]

Compound | swimming time of the rats in the target (200 mg/kg intragastric, oxiracetam control group) [s] | swimming time of the rats in the target (100 mg/kg intragastric, vs 20.18±5.26 seconds, P<0.01) [s] | escape latent periods (100 mg/kg intragastric, compared with sham-operation group, cerebral ischemia group and oxiracetam control group)
NC(=O)CN1CC(O)CC1=O (racemic) [oxiracetam, reference compound] | 31.23 ± 5.03 | – | –
NC(=O)CN1C[C@@H](O)CC1=O [crystal form I of (S)-oxiracetam, (S)-4-hydroxy-2-oxo-1-pyrrolidine acetamide] | – | 35.23 ± 7.03 | shorter escape latent periods
